The data set is described as follows: solvent given as SMILES.
The mark [1] stands for this setting: in O=P(c1ccccc1)(c1ccccc1)c1ccccc1Oc1ccccc1P(=O)(c1ccccc1)c1ccccc1.

“And” between values parts separate entries of the source, which are not always exact repeats. Identical values can stand only once.

Where the note is “in CS(C)=O”, `C(/C=C/Nc1cccc2ccccc12)=[NH+]c1cccc2ccccc12` came in with an emission maximum of 527 nm.
`COc1ccc(/C=C/C2=CC(c3ccccc3)=[O+][B-](F)(F)O2)cc1` registered an emission maximum (in ClCCl) of 506 nm.
Turning to `COc1ccc(C2=[N+]3C(=Nc4c(-c5ccccc5)cc(-c5ccc(OC)cc5)n4[B-]3(F)F)C(c3ccccc3)=C2)cc1`, the emission maximum came to 715 nm (in ClC(Cl)Cl) and 715 nm (in ClCCl).
In the case of `Nc1ccc2c(C(F)(F)F)cc(=O)oc2c1`, the emission maximum is 404 nm (in C1CCC2CCCCC2C1); 401 nm (in C1CCCCC1); 442 nm (in C1COCCO1); 401 nm (in CC1CCCCC1); 465 nm and 461 nm (in CC#N); 466 nm (in CC(C)=O). Further, the emission maximum (in CC(C)O) came out at 481 nm; the emission maximum (in CCC(C)CC) was determined as 400 nm; the emission maximum (in CCCC(C)C) amounted to 399 nm; the emission maximum (in CCCCCC) was 401 nm; the emission maximum (in CCCCCCCCO) is 480 nm; the emission maximum (in CCCCCCO) is reported as 481 nm. Also, the emission maximum by setting is: (in CCCCO) 484 nm; (in CCO) 485 nm; (in CCOC(C)=O) 456 nm; (in CN(C)C=O) 480 nm; (in CO) 487 nm; (in CS(C)=O) 487 nm.
With `CC(=O)Nc1ccc(C2=N/C(=C\c3ccc(C#N)cc3)C(=O)O2)cc1`, the emission maximum (in C1COCCO1) is on record as 461 nm.
Under “in ClC(Cl)Cl”, `CCCCCCCCCCCCCCOc1ccc(C#Cc2cc3nc4c(OCCCCCCCCCCCC)cc5c6cc(OCCCCCCCCCCCC)c(OCCCCCCCCCCCC)cc6c6cc(OCCCCCCCCCCCC)c(OCCCCCCCCCCCC)cc6c5c4nc3cc2C#Cc2ccc(OCCCCCCCCCCCCCC)cc2)cc1` registered an emission maximum of 663 nm.
Regarding `COc1cc(OC)cc(C2=[O+][B-](F)(F)OC(c3ccc4cc(OC)ccc4c3)=C2)c1`, the emission maximum reads like this: (in CC#N) 550.5 nm; (in CC(C)=O) 533.32 nm; (in CCCCCC) 430.95 nm; (in Cc1ccccc1) 475.78 nm; (in ClCCl) 520 nm.
With `CC1=N/C(=C\c2cc(N(C)C)ccc2C#N)C(=O)N1C`, the emission maximum is given as 560 nm (in C1CCOC1), 606 nm (in CC#N) and 492 nm (in CCCCCC).
As to `O=S1(=O)c2ccccc2Oc2cc(N3c4ccccc4C4(c5ccccc53)c3ccccc3N(c3ccc5c(c3)Oc3ccccc3S5(=O)=O)c3ccccc34)ccc21`, the emission maximum amounted to 439.83 nm (in Cc1ccccc1) and 464.9 nm under setting [1].
Regarding `Cc1cc(-c2ccccc2)nc2c1ccc1nc(-c3ccccc3)cn12`, the emission maximum reads like this: (in CC#N) 458 nm; (in CCCCOC(C)=O) 449 nm; (in CCOC(C)=O) 454 nm; (in CO) 450 nm; (in ClC(Cl)Cl) 448 nm; (in ClCCl) 450 nm. This compound also displayed an emission maximum (in c1ccccc1) of 451 nm.
Turning to `CCOC(=O)c1ccc(C2=Cc3ccccc3P2(=O)c2ccccc2)cc1` (stereo unspecified), under “in ClCCl”, the emission maximum came to 425 nm.
As for `CC1(C)C(/C=C/C=C/C=C/C=C2/N(CCCCCC(=O)O)c3ccc(S(=O)(=O)[O-])cc3C2(C)C)=[N+](CCCCS(=O)(=O)[O-])c2ccc(S(=O)(=O)[O-])cc21`, the emission maximum is, setting by setting: (in CO) 774 nm; (in O) 771 nm.
In turn, `CCN(CC)c1ccc2c(-c3ccccc3C(=O)O)c3c([o+]c2c1)/C(=C/c1ccc(N2CCCC2)s1)CCC3` yielded an emission maximum (in ClCCl) of 770 nm.
On to `N#Cc1ccc(C#Cc2ccc(C#Cc3ccccc3C#N)cc2C#N)cc1`, for which the emission maximum (in ClC(Cl)Cl) stood at 370 nm.
Take `C(#Cc1ccc(C#Cc2ccccc2)cc1)c1ccccc1`: the emission maximum (in ClC(Cl)Cl) came to 348 nm.
In turn, `CCN(CC)c1ccc2c(c1)oc(=O)c1c(C)nc3c(c(-c4ccccc4)nn3C)c12` displayed an emission maximum (in ClCCl) of 461 nm.
On the same count and under the same terms, the same measure for `Cc1cccc(-c2c3ccccc3cc3ccccc23)n1`: 418 nm.
Regarding `N#Cc1nc(N(Cc2ccc(F)cc2)Cc2ccc(F)cc2)c(C#N)nc1N(Cc1ccc(F)cc1)Cc1ccc(F)cc1`, the emission maximum (in ClC(Cl)Cl) came out at 577 nm.
The compound `CC(C)(C)c1cc(C(C)(C)C)c2oc3c(c2c1)C=CN1C(=O)C2=C4c5oc6c(C(C)(C)C)cc(C(C)(C)C)cc6c5C=CN4C(=O)C2=C31` gave an emission maximum (in CN(C)C=O) of 658 nm and an emission maximum (in ClC(Cl)Cl) of 651 nm.
The compound `COc1ccc(C2=C(C)C3=C(c4c(-c5ccccn5)nc5ccccn45)c4c(C)c(-c5ccc(OC)cc5)c(C)n4[B-](F)(F)[N+]3=C2C)cc1` gave an emission maximum (in ClCCl) of 608 nm.
Take `CC(C)(C)c1ccc(Oc2cc3c4c(cc(Oc5ccc(C(C)(C)C)cc5)c5c6c(Oc7ccc(C(C)(C)C)cc7)cc7c8c(cc(Oc9ccc(C(C)(C)C)cc9)c(c2c45)c86)C(=O)OC7=O)C(=O)OC3=O)cc1`: where the note is “in ClC(Cl)Cl”, the emission maximum was determined as 615 nm.
`Cc1ccc([N+]2=c3c4n(c5ccccc35)[B-](F)(F)[N+](c3ccc(C)cc3)=c3c=4n(c4ccccc34)[B-]2(F)F)cc1` yielded an emission maximum (in ClCCl) of 808 nm.
`Cc1ccccc1` displayed an emission maximum (in C1CCCCC1) of 286.62 nm.
For `c1cc2c3c(cccc3c1)NC(c1ccc3ccc4cccc5ccc1c3c45)N2`, the emission maximum was 458 nm (in CC#N), 450 nm (in CO), 420 nm (in CS(C)=O) and 502 nm (in Cc1ccccc1).
In the case of `CCCCCCCC[Si](C)(C)c1cccc2ccccc12`, the emission maximum (in C1CCCCC1) came out at 329 nm.
On to `Cc1cc(C)c2c(c1)c1cc(C)cc(C)c1n2-c1ccc2c(c1)Sc1cc3c(cc1B2c1c(C(C)C)cc(C(C)C)cc1C(C)C)B(c1c(C(C)C)cc(C(C)C)cc1C(C)C)c1ccccc1S3`, for which the emission maximum runs as follows: (in Cc1ccccc1) 465 nm; (in O=P(c1ccccc1)(c1ccccc1)c1ccc2oc3ccc(P(=O)(c4ccccc4)c4ccccc4)cc3c2c1) 483 nm.
For `Cc1cccc(-c2nc3sc4ccccc4c3s2)c1`, for the setting “in CS(C)=O”, the emission maximum worked out at 412 nm.
As for `CC(C)(C)c1ccc2c(c1)[nH]c1c3[nH]c4cc(C(C)(C)C)ccc4c3c3nsnc3c21`, the emission maximum by setting is: (in CN(C)C=O) 507 nm; (in Cc1ccccc1) 472 nm; (in ClCCl) 502 nm.
`CC(C)(C)NC(=O)c1cccc2ccc3c4ccc(F)cc4c4cc(F)ccc4c3c12` came in with an emission maximum (in ClCCl) of 388 nm.
`Brc1ccc2[nH]c(-c3ccc(-c4ccc(-c5ccc(-c6nc7cc(Br)ccc7[nH]6)cc5)cc4)cc3)nc2c1` yielded an emission maximum (in CN(C)C=O) of 410 nm.
Take `CC(C)CCC[C@@H](C)[C@H]1CC[C@H]2[C@@H]3CC=C4C[C@@H](OC(=O)Oc5cc(/C=C/c6ccc(N(C)C)cc6)ccc5[N+](=O)[O-])CC[C@]4(C)[C@H]3CC[C@]12C`: the emission maximum is given as 503 nm (in C1CCCCC1), 573 nm (in C1COCCO1), 503 nm (in CCCCCCC) and 554 nm (in Cc1ccccc1).
In turn, `CCN(C)c1ccc(C2=C3C(C)=CC(/C=C/c4ccc(OCC(=O)OC)cc4)=[N+]3[B-](F)(F)n3c(C)cc(C)c32)cc1` displayed an emission maximum (in CO) of 581 nm.
On to `N#CC(C#N)=C(c1ccc(-n2ccc3ccccc32)cc1)c1ccc(-n2ccc3ccccc32)cc1`, for which the emission maximum (in Cc1ccccc1) is given as 536 nm.
In turn, `Fc1ccc(-c2cccc3ncc(-c4ccccc4)n23)cc1` displayed an emission maximum (in ClCCl) of 469 nm.
As for `CCC1=C(C)C2=Cc3cscc3B(O)N2C1=O`, the emission maximum is on record as 412 nm (in CC#N); 396 nm (in CCCCCC); 418 nm (in CO); 425 nm (in CS(C)=O); 414 nm (in ClC(Cl)Cl).
Consider `N#Cc1c(-n2c3ccccc3c3ccccc32)cccc1-n1c2ccccc2c2ccccc21`, for which the emission maximum is, setting by setting: (in Cc1ccccc1) 403 nm; under setting [1], 415 nm.
Where the note is “in C1COCCO1”, `CC(=O)Nc1ccc(C2=C/C(=C\c3ccc(C#N)cc3)C(=O)N2)cc1` registered an emission maximum of 584 nm.
Turning to `O=c1oc2cc(S(=O)(=O)O)c3ccccc3c2nc1-c1ccccc1`, the emission maximum (in CC#N) stood at 480 nm.
In turn, `CC1=CC(C)=[N+]2C1=C(c1ccc(I)cc1)c1c(C)cc(C)n1[B-]2(Oc1ccc([N+](=O)[O-])cc1)Oc1ccc([N+](=O)[O-])cc1` registered an emission maximum (in ClC(Cl)Cl) of 516.5 nm.
Where the note is “in C1CCOC1”, `c1cc2c3c(c1)-c1cccc4ccn(c14)B3n1ccc3cccc-2c31` gave an emission maximum of 387 nm.
Regarding `CC[N+](CC)=c1ccc2c(-c3ccccc3C(=O)O)c3c(=O)oc4c5c6c(cc4c3oc-2c1)CCCN6CCC5`, the emission maximum reads like this: (in CCO) 674 nm; (in ClC(Cl)Cl) 664 nm; (in O) 684 nm.
`F[B-]1(F)n2c(nc(-c3ccccc3)c2-c2ccccc2)-c2cccc[n+]21`: the emission maximum is 517 nm (in C1CCCCC1); 537 nm (in C1CCOC1); 510 nm (in C1COCCO1); 543 nm and 498 nm (in CC#N); 510 nm and 515 nm (in CCCCCC); 525 nm and 534 nm (in CO). The emission maximum runs as follows: (in ClC(Cl)Cl) 520 nm and 528 nm; (in ClCCl) 528 nm.
Compound `[O-]c1ccc2ccccc2c1` gave an emission maximum (in O) of 414 nm.
For `COCCOCCOc1cc(C=O)c(OCCOCCOC)cc1C=O`, the emission maximum is 478 nm (in CC(C)(C)O); 481 nm (in CC(C)CO); 481 nm (in CC(C)O); 467 nm (in CCCCO); 464 nm (in CCCO); 464 nm (in CCO). For the same compound, the emission maximum was 466 nm (in CN(C)C=O); 450 nm (in CNC=O); 466 nm (in CO); 458 nm (in NC=O); 496 nm (in O).
Regarding `COC(=O)C1=C(C(=O)OC)C2(c3cc(Cl)ccc3-c3c(Cl)cc(Cl)cc32)C2(/C=C/c3ccccc3)c3cc(OC)c(OC)cc3CCN12` (stereo unspecified), the emission maximum (in ClCCl) worked out at 487 nm.

These data come from the Deep4Chem optical property database.
